Data as given in US5449692A, “Substituted (arylalkylaminobenzyl) aminopropionamide derivatives and process for their preparation” (Farmitalia Carlo Erba S.r.l., priority 1993, dated 1995).
Where a name gives a salt, the structure may show the parent alone.

Columns and labels:
in vivo = assay: in vivo
Protocol: The neurotoxicity of the compounds and of the reference anticonvulsants was assessed with the rotorod test (Dunan and Miye, J. Am. Pharm. Ass. Sci. Ed., 1957, 46, 208; Kinnard et al. J. Pharmacol. Exp. Ther. 1957, 121, 354; Horowitz, Nature, 1963, 200, 369).
For instance, following Table 1 summarizes the activity and neurotoxicity data obtained in the MES test and in the rotorod test, respectively, for a representative group of compounds according to the present invention, in comparison with the prior art compound 2-(4-benzyl-aminobenzyl)aminopropanamide, dihydrochloride (internal code FCE 26749) which is known from WO-90/14334.
TD50 means toxic dose in 50% of treated animals

[1] = antagonism of maximal electroshock seizures (MES); type: in vivo; settings: MES test; read-out: MES - ED50 (effective dose in 50% of treated animals)

Row | Compound | TD50 (in vivo) | selectivity ratio (in vivo) | ED50 [1]
1 | CC(NCc1ccc(NCc2ccccc2)cc1)C(N)=O (stereo not drawn) [FCE 26749, 2-(4-benzyl-aminobenzyl)aminopropanamide, dihydrochloride, reference compound] | 217 mg/kg | 23 | 9.5 mg/kg
2 | C[C@H](NCc1ccc(NCc2cccc(F)c2)cc1)C(N)=O [FCE 27232, 2-[4-(3-fluorobenzyl)aminobenzyl]aminopropanamide, dihydrochloride] | 516 mg/kg | 81 | 6.4 mg/kg
3 | CC(NCc1ccc(NCc2ccc(Cl)cc2)cc1)C(N)=O.Cl.Cl (stereo not drawn) [FCE 28622, 2-[4-(4-chlorobenzyl)aminobenzyl]aminopropanamide, dihydrochloride] | 1640 mg/kg | 88 | 18.7 mg/kg
4 | CC(NCc1ccc(NCCc2ccccc2)cc1)C(N)=O.Cl.Cl (stereo not drawn) [FCE 28623, 2-[4-(2-phenylethyl)aminobenzyl]aminopropanamide, dihydrochloride] | 917 mg/kg | 54 | 17.1 mg/kg
5 | CC(NCc1ccc(NCc2ccc(Br)cc2)cc1)C(N)=O.Cl.Cl (stereo not drawn) [FCE 28639, 2-[4-(4-bromobenzyl)aminobenzyl]aminopropanamide, dihydrochloride] | 1900 mg/kg | 65 | 29.1 mg/kg
6 | CC(NCc1ccc(NCc2ccc(F)cc2)cc1)C(N)=O.Cl.Cl (stereo not drawn) [FCE 28640, 2-[4-(4-fluorobenzyl)aminobenzyl]aminopropanamide, dihydrochloride] | 1680 mg/kg | 63 | 26.5 mg/kg
7 | CC(NCc1ccc(NCc2cccc(Cl)c2)cc1)C(N)=O.Cl.Cl (stereo not drawn) [FCE 28714, 2-[4-(3-chlorobenzyl)aminobenzyl]aminopropanamide, dihydrochloride] | 663 mg/kg | 59 | 11.3 mg/kg
